{
  "source": "patent US20170173106A1",
  "about": "“Polypeptide Fragments of 168A-T2 and Compositions Comprising Them for Use in Treating Cancer” (GENE SIGNAL INTERNATIONAL SA, priority 2014, published 2017)",
  "key": {"HUVECs": {"system": "HUVECs", "assay": "Migration test following the wound test", "format": "cell-based, human", "conditions": "66 μM (FIG. 3); 20 hrs", "method": "The migration of the cells was evaluated according to the wound test (Sato and Rifkin 1988 J Cell Biol 107, 1199-1205). HUVECs were cultivated to confluence in an EGM2-MV media. The wound width was measured using the software “Analysis” (Soft Imaging System Gmbh Digital, Olympus). Peptides to be tested were then added to the media.\nA wound has been performed with a chisel tip on the cell layer. The HUVECs migration following the addition of peptides was evaluated by the wound assay and the progress of the migration front of the HUVECs was analyzed after 20 hrs of culture. […] Pictures were shot with a microscope equipped with a camera (zoom ×40)."}, "CD9-CD9P-1 complex": {"biological_target": "T1, CD9-CD9P-1 complex (Homo sapiens, UniProt P21926+Q9P2B2)", "T1 construct": "endogenous in cells; host or cells: HUVEC", "T1 sequence (Q9P2B2 26-879)": "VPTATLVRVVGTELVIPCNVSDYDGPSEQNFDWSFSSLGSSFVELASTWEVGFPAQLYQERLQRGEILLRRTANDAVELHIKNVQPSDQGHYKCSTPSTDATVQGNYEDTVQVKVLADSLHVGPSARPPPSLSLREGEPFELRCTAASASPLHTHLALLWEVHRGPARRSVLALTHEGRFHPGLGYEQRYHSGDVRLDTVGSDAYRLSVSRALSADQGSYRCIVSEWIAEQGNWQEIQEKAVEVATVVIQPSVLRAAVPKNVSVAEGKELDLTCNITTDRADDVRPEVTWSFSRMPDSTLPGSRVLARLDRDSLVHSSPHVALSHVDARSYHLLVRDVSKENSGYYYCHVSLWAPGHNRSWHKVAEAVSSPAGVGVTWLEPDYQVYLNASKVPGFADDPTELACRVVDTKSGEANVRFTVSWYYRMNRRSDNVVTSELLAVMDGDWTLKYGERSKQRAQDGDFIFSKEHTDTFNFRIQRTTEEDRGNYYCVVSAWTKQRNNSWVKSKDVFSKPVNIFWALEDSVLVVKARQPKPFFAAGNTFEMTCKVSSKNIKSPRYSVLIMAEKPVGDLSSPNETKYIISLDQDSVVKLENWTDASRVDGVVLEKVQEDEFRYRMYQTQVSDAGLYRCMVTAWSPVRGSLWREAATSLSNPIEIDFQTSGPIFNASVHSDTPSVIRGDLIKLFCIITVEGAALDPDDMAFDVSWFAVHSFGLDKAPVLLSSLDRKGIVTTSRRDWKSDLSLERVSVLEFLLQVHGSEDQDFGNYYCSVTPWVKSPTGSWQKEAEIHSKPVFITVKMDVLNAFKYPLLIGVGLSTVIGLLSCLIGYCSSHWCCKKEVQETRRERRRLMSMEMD", "T1 sequence (P21926 2-228 limits assumed)": "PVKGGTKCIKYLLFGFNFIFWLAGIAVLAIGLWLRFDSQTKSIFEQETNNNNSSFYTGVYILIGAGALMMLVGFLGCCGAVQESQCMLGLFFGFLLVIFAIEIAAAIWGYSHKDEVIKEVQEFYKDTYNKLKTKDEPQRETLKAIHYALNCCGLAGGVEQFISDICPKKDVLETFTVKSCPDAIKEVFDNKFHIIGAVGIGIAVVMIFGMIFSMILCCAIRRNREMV", "assay": "Immunoprecipitation in HUVECs: CD9P-1 with CD9", "format": "cell-based", "conditions": "33 μM; 2 hrs", "method": "(§1) FIG. 13 is a photograph representing the dissociation of CD9-CD9P-1, CD9P-1-CD151 and CD9-CD151 complexes by P3 in HUVECs. HUVECs incubated for 2 h with 33 μM P3, PCT or solvent in EGM2-MV medium were lysed in brij 97 buffer, then CD81, CD9 or CD151 were immunoprecipitated with the corresponding antibody. Line A: Western blot results obtained with anti-CD9P-1 antibody from immunoprecipitated CD81, CD9 and CD151. Line B: Western blot results obtained with anti-CD9 antibody from immunoprecipitated CD81, CD9 and CD151. Line C: Western blot results obtained with anti-CD151 antibody from immunoprecipitated CD81, CD9 and CD151. PCT: control peptide. IP: immunoprecipitation.\n(§2) To study more precisely the effect of P3 on the associations of tetraspanins CD9, CD81, and CD151 between them and with CD9P-1, immunoprecipitation (IP) experiments were performed. In the control experiment (with the solvent), CD9P-1 co-precipitated with CD9 and CD81. A weak co-precipitation was observed between […] and CD151. The associations between tetraspanins and CD9P-1 are not modified under PCT condition. However, the interactions between CD9P-1 and CD9 and between CD9P-1 and CD151 are decreased while the HUVECs are incubated for 2 hrs with 33 μM of P3. The association between CD9P-1 and CD81 is not modified by P3 (FIG. 13A)."}, "[1]": {"biological_target": "T2, CD9P-1 and CD81 association (Homo sapiens, UniProt P60033+Q9P2B2)", "T2 construct": "endogenous in cells; host or cells: HUVEC", "T2 sequence (Q9P2B2 26-879)": "T1 sequence (Q9P2B2 26-879)", "T2 sequence (P60033 1-236)": "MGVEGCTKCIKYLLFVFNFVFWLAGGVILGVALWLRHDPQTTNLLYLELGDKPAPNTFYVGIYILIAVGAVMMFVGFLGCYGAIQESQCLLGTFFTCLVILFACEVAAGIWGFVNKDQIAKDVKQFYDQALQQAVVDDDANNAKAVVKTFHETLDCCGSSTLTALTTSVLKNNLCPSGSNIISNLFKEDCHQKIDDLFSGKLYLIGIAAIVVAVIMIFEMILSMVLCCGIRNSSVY", "assay": "Immunoprecipitation in HUVECs: CD9P-1 with CD81", "format": "cell-based", "conditions": "33 μM; 2 hrs", "method": "as §1, §2"}, "endostatin": {"system": "endostatin", "assay": "Endostatin production by HUVECs (ELISA)", "format": "cell-based, human", "conditions": "rising concentrations; 48 hrs", "method": "HUVECs were transfected with siRNA using transfecting agent GENJET according to the manufacturer's instructions. After 48 hrs of incubation, supernatants were collected, protein expression tested by western blots and endostatin quantified.\nEndostatin levels were quantified by ELISAs on lysates of HUVECs incubated at rising concentrations of P3 or PCT for 48 hrs.\nIn order to evaluate the role of metalloproteinases (MMPs) in endostatin production, a polyvalent inhibitor of MMPs, GM6001 was used. The concentration of endostatin in supernatants is at 6.2 ng/mg of protein of the lysates/48 hrs. […] GM6001 inhibits endostatin production induced by P3. MMPs might then be implicated in endostatin production induced by P3.\nHUVECs were incubated for 48 hrs in an EGM2-MV media with an anti-CD151 antibody (11G5a) or an irrelevant antibody (negative control unable to recognize any protein). Then endostatin levels were measured by ELISA in supernatants.\nHUVECs cells were transfected with specific siRNA of CD151 and CD9. Protein expression was analyzed in western blots. In parallel, endostatin levels were measured by ELISA in supernatants. […] Levels of endostatin in supernatant of HUVECs cells transfected with siRNA were measured. […] On the contrary, levels of endostatin increased at 9.4 ng/mg of protein lysates/48 hrs in HUVECs depleted in CD151 (FIG. 18B). CD151 is thus involved in the production of endostatin."}},
  "data": [
    {"sequence": "NQKGCYDLVT (control peptide) [PCT]", "values": [
      {"measurement": "wound closure / HUVECs migration", "setting": "HUVECs", "value": "completely closed"},
      {"measurement": "interaction between CD9P-1 and CD9", "setting": "CD9-CD9P-1 complex", "value": "not modified"},
      {"measurement": "association between CD9P-1 and CD81", "setting": "[1]", "value": "not modified"},
      {"measurement": "level of endostatin compared to the solvent condition", "setting": "endostatin", "value": "does not modify the level of endostatin"}
    ]}
  ]
}
